# According to patent US20090042946A1, “METHOD AND KIT FOR C[…]” (priority 2003, published 2009):
# Test system: severed left femoral artery
# Experiment: Severed femoral artery bleeding model in anesthetized mice, topical VRA by cotton-tipped applicator
# Format: in vivo
# Method: Approximately 4 to 6 week old white mice weighing about 20 grams were anesthetized using 50 microliters of anesthetic (ketamine+xylazine) intraperitoneally. The area near the inguinal region (1.75 cm proximal to the ankle) was shaved and a 0.5 to 1 cm incision was made such that the left femoral artery was severed. The incision was washed with normal saline. Control animals were treated with saline while test animals were treated with a VRA (alvinil) (approx. 500 microliters of a 0.8 mmol solution) administered topically with a cotton-tipped applicator soaked with the VRA solution over the wound. The applicator was then removed after 5 seconds and the wound was evaluated for signs of hemorrhage.
# In the control mice, the wound was continuously flushed with saline.
# In the treatment group of animals, the wound was treated with arvinil by swab application, then flushed once with saline. […] After 10 minutes, a second incision was made in the femoral artery above the previous cut resulting in severe hemorrhage.
structure (smiles),measurement,setting,value
CCCCC/C=C\C/C=C\C/C=C\C/C=C\CCCC(=O)NCc1ccc(O)c(OC)c1 [arvinil],signs of shock,during the course of the experiment after topical treatment of the severed femoral artery,No signs of shock
same,heart perfusion at euthanasia (KCl heart puncture),end of experiment after topical treatment of both cuts,fully perfused
same,bleeding from second incision in femoral artery after application,"second incision above the previous cut after 10 minutes caused severe hemorrhage, topical application to the second cut",cessation of bleeding
same,bleeding from severed femoral artery after treatment,"swab application, approx. 500 microliters of 0.8 mmol solution, applicator removed after 5 seconds, observed following one saline flush",No bleeding was observed
